# Structures can show the parent of a compound that is named as a salt.
# What was measured:
# [1] = system: rat's removed bladder specimen; experiment: Inhibition of the contraction of rat's removed bladder specimen (15 mM K+-induced contraction, organ bath); conditions: SD male rat bladder strips, dose giving 50% inhibition of contraction area
# Source text: Since the inhibitory action is blocked by a known maxi-K channel blocker charybdotoxin or iberiotoxin, it is confirmed that the effect of the compounds of the invention is based on the maxi-K channel opening effect. Thus, the pharmacological effect of the compounds of the invention was confirmed according to the following method.
# <Inhibitory Effect in Construction of the Rat's Removed Bladder Specimen>
# In this experiment, SD-family male rats (9-13 weeks of age) were used. The rats were killed by bleeding under ether anesthesia, and the bladders were removed. The removed bladders were immediately washed in a Kiebs-Henseleit solution (NaCl 118.4, KCl 4.7, KH2PO4 1.2, MgSO4 1.2, CaCl2 2.5, NaHCO3 25.0, glucose 11.1 [mM], aeration with 95% O2/5% CO2 mixed gas) kept at 37° C., and prepared into rectangular specimens of about 10 mm long and about 2 mm width on a Petri dish filled with the Klebs-Henseleit solution. The respective specimens were ligated at the both ends with a cotton string via a wire hook, and the one end was fixed to an FD pick-up and the other hung down vertically in an organ bath filled with the Klebs-Henseleit solution. After completion of the operation, 1.0 g of static tensile stress was given to the respective slices, which were then allowed to stand for 1.5-2 hours to stabilize. Then, a KCl solution was added to the organ bath so that the final K^+ ion concentration become 15 mM to induce the contraction. Thereafter, the specimens were further allowed to stand for about 1-2 hours to stabilize, and the test was started. The contraction of the smooth muscle was measured isometrically through the FD pick-up, and the output signal was amplified through a strain stress amplifier to continuously record a chart on a pen recorder. At the same time, the respective contraction wave forms to be analyzed were recorded on a personal computer as magnetic data through an analogue/digital signal converter, and the under-area of the contraction was calculated by analytical software. The contraction 5 minutes immediately after the start of the test was regarded as the value before administration of the drug to be tested (100% reference value). The drug to be tested was added into the bath at intervals of 30 minutes, and the contraction for 5 minutes, respectively 25 minutes after the administration, was analyzed. The drug to be tested was administered at a common ratio of 3 or 10 accumulatively. The effect of the drug to be tested was represented by the dose by which 50% inhibition was attained to the value before the administration (100% reference value). Additionally, the wave form of contraction at the highest dose of the drug was recorded, and then a maxi-K channel selective blocker, charybdotoxin or iberiotoxin, was administered so that the final concentration in the organ bath became 100 nM. Thus, the effect of the drug was observed whether it was blocked or not.
# [2] = system: rhythmic bladder contraction in rats under urethane anesthesia; experiment: Rhythmic contraction of the bladder in rats under urethane anesthesia; assay type: in vivo, rat; conditions: urethane-anesthetized SD female rats, i.d.; for inhibition in vivo at 10 mg/kg: Rattus norvegicus, intraduodenal, up to 2 hours, read-out: Inhibition of frequency of the bladder contraction max % inhibition; for Frequency of Bladder Contraction Retention time of 50% Inhibition: 10 mg/kg
# Source text: <Effect on the Rhythmic Contraction of the Bladder in Rats Under Urethane Anesthesia>
# SD-Family female rats (about 300 g) were used. A catheter was inserted into the bladder through the external urethral orifice under urethane anesthesia and spontaneous breathing. The other end was connected to a pressure transducer and an infusion pump through a three-way cock. On the other hand, another catheter for measuring blood pressure was inserted into the right common carotid artery. Physiological saline warmed at about 38° C. was injected in the bladder at a rate of 4.2 ml/hr until rhythmical bladder contraction was induced. Change of the internal pressure in the bladder was continuously recorded on a recorder. After the rhythmical bladder contraction was stabilized, a test compound suspended in 0.5% methylcellulose aqueous solution was administered through a catheter which had been attached to the duodenum. Thus, frequency of the bladder contraction (every 10 minutes), force of bladder contraction and average blood pressure were observed as evaluation items up to 2 hours after administration of the test compound.
# [3] = system: rhythmic vesical contraction in an anesthetized rat; conditions: cited from earlier work
# [4] = system: murine removed bladder smooth muscle; conditions: cited from earlier work
SMILES,IC50 [1] [nM],melting point [°C],inhibition in vivo at 10 mg/kg [2] [%],Frequency of Bladder Contraction Retention time of 50% Inhibition [2] [min],further results
"COc1nc(N)c(C#N)c(-c2cccs2)c1C#N [Example 1, 2-amino-6-methoxy-4-(2-thienyl)pyridine-3,5-dicarbo-nitrile]",150,,,,
"COc1nc(N)c(C#N)c(-c2ccccc2F)c1C#N [Example 3, 2-amino-6-methoxy-4-(2-fluorophenyl)pyridine-3,5-dicarbonitril]",230,240 to 241,97,39,
"COc1nc(N)c(C#N)c(C2CCCCO2)c1C#N (stereo not drawn) [Example 6, 2-amino-4-(2-tetrahydropyranyl)-6-methoxypyridine-3,5-dicarbonitrile]",1300,134 to 135,65,39,
"C#CCOc1nc(N)c(C#N)c(-c2ccccc2F)c1C#N [Example 11, 2-amino-4-(2-fluorophenyl)-6-(prop-2-yn-1-yloxy)pyridine-3,5-dicarbonitrile]",410,205 to 206,87,27,
"N#Cc1c(N)nc(OCC(F)F)c(C#N)c1-c1ccccc1F [Example 12, 2-amino-6-(2,2-difluoroethoxy)-4-(2-fluorophenyl)pyridine-3,5-dicarbonitrile]",410,219 to 220,77,31,
"N#Cc1c(N)nc(OCCOC(=O)[C@@H](N)Cc2ccccc2)c(C#N)c1-c1ccccc1 [Example 15, 2-[(2-amino-3,5-dicyano-4-phenylpyridin-6-yl)oxy]ethyl (S)-2-amino-3-phenylpropanoate monohydrochloride monohydrate]",2800,,89,36,
"COc1nc(N)c(C#N)c(-c2ccc(N)cc2)c1C#N.Cl.O [Example 20, 2-amino-(4-aminophenyl)-6-methoxypyridine-3,5-dicarbonitrile monohydrochloride monohydrate]",110,,86,40,
"COc1nc(NC(C)=O)c(C#N)c(-c2ccccc2F)c1C#N [Example 58, N-[3,5-dicyano-4-(2-fluorophenyl)-6-methoxypyridin-2-yl]acetamide]",1400,192 to 193,93,46,
"COc1nc(N)c(C#N)c(CC2CCCCC2)c1C#N [Example 150, 2-amino-4-cyclohexylmethyl-6-methoxypyridine-3,5-dicarbonitrile]",1300,139 to 140,81,30,
"COc1nc(N)c(C#N)c(Cc2ccccc2)c1C#N [Example 151, 2-amino-4-benzyl-6-methoxypyridine-3,5-dicarbonitrile]",1000,215 to 216,71,26,
"COc1nc(NC(=O)CCc2ccccc2)c(C#N)c(-c2ccccc2F)c1C#N [Example 402, N-[3,5-dicyano-4-(2-fluorophenyl)-6-methoxypyridin-2-yl]-3-phenylpropionamide]",,183 to 184,,,
"COCCC(=O)Nc1nc(OC)c(C#N)c(-c2ccccc2F)c1C#N [Example 404, N-[3,5-dicyano-4-(2-fluorophenyl)-6-methoxypyridin-2-yl]-3-methoxypropionamide]",,115 to 116,,,
"COc1nc(NC(=O)C(C)C)c(C#N)c(-c2ccccc2F)c1C#N [Example 405, N-[3,5-dicyano-4-(2-fluorophenyl)-6-methoxypyridin-2-yl]isobutyramide]",,193 to 194,,,
"COc1nc(NC(=O)C(C)(C)C)c(C#N)c(-c2ccccc2F)c1C#N [Example 406, N-[3,5-dicyano-4-(2-fluorophenyl)-6-methoxypyridin-2-yl]-2,2-dimethylpropio namide]",,162 to 164,,,
"CCCCCC(=O)Nc1nc(OC)c(C#N)c(-c2ccccc2F)c1C#N [Example 407, N-[3,5-dicyano-4-(2-fluorophenyl)-6-methoxypyridin-2-yl]hexanamide]",,139 to 141,,,
"COc1nc(NC(=O)c2ccc3ccccc3c2)c(C#N)c(-c2ccccc2F)c1C#N [Example 411, N-[3,5-dicyano-4-(2-fluorophenyl)-6-methoxypyridin-2-yl]naphthalene-2-carbo xamide]",,227 to 230,,,
"COc1nc(NC(=O)c2ccccn2)c(C#N)c(-c2ccccc2F)c1C#N [Example 412, N-[3,5-dicyano-4-(2-fluorophenyl)-6-methoxypyridin-2-yl]pyridine-2-carboxamide]",,219 to 220,,,
"COc1nc(NC(=O)c2cccs2)c(C#N)c(-c2ccccc2F)c1C#N [Example 414, N-[3,5-dicyano-4-(2-fluorophenyl)-6-methoxypyridin-2-yl]thiophene-2-carboxamide]",,208 to 209,,,
"COc1nc(NC(=O)c2ccco2)c(C#N)c(-c2ccccc2F)c1C#N [Example 415, N-[3,5-dicyano-4-(2-fluorophenyl)-6-methoxypyridin-2-yl]furan-2-carboxamide]",,222 to 223,,,
"COc1nc(NC(=O)Cc2ccccc2)c(C#N)c(-c2ccccc2F)c1C#N [Example 416, N-[3,5-dicyano-4-(2-fluorophenyl)-6-methoxypyridin-2-yl]-2-phenylacetamide]",,206 to 208,,,
"COc1nc(NC(=O)NCCO)c(C#N)c(-c2ccccc2F)c1C#N [Example 420, 1-[3,5-dicyano-4-(2-fluorophenyl)-6-methoxypyridin-2-yl]-3-(2-hydroxyethyl)ur ea]",,140 to 144,,,
N#Cc1cc(C#N)c(Oc2ccccc2)nc1N [Example 426],,235 to 237,,,
N#Cc1c(N)nc(O)c(C#N)c1Cc1ccccc1 [Example 434],,314 to 315,,,
"N#Cc1c(N)nc(OCc2cccnc2)c(C#N)c1Cc1ccccc1 [Example 436, 2-amino-4-benzyl-6-(pyridin-3-ylmethoxy)pyridine-3,5-dicarbonitrile]",,204 to 205,,,
N#Cc1c(N)nc(SCc2ccccc2)c(C#N)c1Cc1ccccc1 [Example 437],,188 to 189,,,
"N#Cc1c(N)nc(SCc2cccnc2)c(C#N)c1Cc1ccccc1 [Example 438, 2-amino-4-benzyl-6-[(pyridin-3-ylmethyl)sulfanyl]pyridine-3,5-dicarbonitrile]",,259 to 260,,,
Cc1c(-c2ccccc2F)[nH]c(N)c1C#N [NS-8],1100,,,,Rhythmic vesical contraction [3]: makes rhythmic vesical contraction subsided; Relaxant effect for the murine removed bladder smooth muscle [4]: exhibits a relaxant effect

# — patent publication US20030232860A1, “Medicine comprising dicyanopyridine derivative” (priority 2000, published 2003)
